Results taken from the supplement of paper PMC10883282.
± gives the standard deviation of the averaged measurements.

Experiments:
Experiment in all cases: relative viability vs DMSO control (72 h) (fraction); higher = more viable cells
A204 = tested on: A204
Summary of the method: (§1)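 Serially diluted compound, 2.5 µl from source plates spanning 10 mM to 0.0002 mM, was added 24 h after sarcoma cell lines were seeded in 384-well plates at densities targeting 80–90% confluence. Plates then sat 72 h at 37 °C, 5% CO2, with 0.1% DMSO vehicle and a 5 µM positive control. Relative viability came from ATPLite as percent growth, averaged over up to triplicate wells, and was rescaled with 1 as full and 0 as none.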

G401 = tested on: G401
Summary of the method: as §1

HS729 = tested on: HS729
Summary of the method: as §1

HT1080 = tested on: HT1080
Summary of the method: as §1

KHOS-NP = tested on: KHOS-NP
Summary of the method: as §1

RD-ES = tested on: RD-ES
Summary of the method: as §1

SK-ES-1 = tested on: SK-ES-1
Summary of the method: as §1

SK-LMS-1 = tested on: SK-LMS-1
Summary of the method: as §1

SW684 = tested on: SW684
Summary of the method: as §1

SW872 = tested on: SW872
Summary of the method: as §1

SW982 = tested on: SW982
Summary of the method: as §1

VA-ES-BJ = tested on: VA-ES-BJ
Summary of the method: as §1

COc1cc2ncnc(Nc3ccc(F)c(Cl)c3)c2cc1OCCCN1CCOCC1 [Gefitinib]
Details	relative viability
A204, 0.00017 µM	1.06 ± 0.027
A204, 0.00051 µM	1.08 ± 0.029
A204, 0.00152 µM	1.09 ± 0.037
A204, 0.00457 µM	1.06 ± 0.017
A204, 0.01372 µM	1.05 ± 0.021
A204, 0.04115 µM	1.1 ± 0.067
A204, 0.1235 µM	1.1 ± 0.091
A204, 0.3704 µM	1.03 ± 0.034
A204, 1.111 µM	1.04 ± 0.1
A204, 3.333 µM	0.876 ± 0.075
A204, 10 µM	0.448 ± 0.04
G401, 0.00017 µM	1.01 ± 0.045
G401, 0.00051 µM	1 ± 0.041
G401, 0.00152 µM	0.9788 ± 0.0043
G401, 0.00457 µM	0.987 ± 0.0073
G401, 0.01372 µM	1 ± 0.027
G401, 0.04115 µM	0.996 ± 0.035
G401, 0.1235 µM	1 ± 0.026
G401, 0.3704 µM	0.993 ± 0.016
G401, 1.111 µM	0.984 ± 0.032
G401, 3.333 µM	0.835 ± 0.049
G401, 10 µM	0.582 ± 0.017
HS729, 0.00017 µM	0.9733 ± 0.0092
HS729, 0.00051 µM	0.97 ± 0.024
HS729, 0.00152 µM	1.03 ± 0.026
HS729, 0.00457 µM	0.947 ± 0.017
HS729, 0.01372 µM	1.01 ± 0.054
HS729, 0.04115 µM	1.03 ± 0.073
HS729, 0.1235 µM	1 ± 0.058
HS729, 0.3704 µM	1.01 ± 0.021
HS729, 1.111 µM	0.958 ± 0.093
HS729, 3.333 µM	0.853 ± 0.11
HS729, 10 µM	0.621 ± 0.071
HT1080, 0.00017 µM	1.05 ± 0.033
HT1080, 0.00051 µM	1.1 ± 0.024
HT1080, 0.00152 µM	1.04 ± 0.045
HT1080, 0.00457 µM	1.07 ± 0.017
HT1080, 0.01372 µM	1.06 ± 0.039
HT1080, 0.04115 µM	1.03 ± 0.046
HT1080, 0.1235 µM	1.047 ± 0.0077
HT1080, 0.3704 µM	1.07 ± 0.039
HT1080, 1.111 µM	1.05 ± 0.061
HT1080, 3.333 µM	1.04 ± 0.023
HT1080, 10 µM	0.483 ± 0.064
KHOS-NP, 0.00017 µM	1.09 ± 0.018
KHOS-NP, 0.00051 µM	1.08 ± 0.028
KHOS-NP, 0.00152 µM	1.08 ± 0.042
KHOS-NP, 0.00457 µM	1.08 ± 0.034
KHOS-NP, 0.01372 µM	1.096 ± 0.01
KHOS-NP, 0.04115 µM	1.07 ± 0.019
KHOS-NP, 0.1235 µM	1.06 ± 0.038
KHOS-NP, 0.3704 µM	1.06 ± 0.015
KHOS-NP, 1.111 µM	1.08 ± 0.018
KHOS-NP, 3.333 µM	1.08 ± 0.033
KHOS-NP, 10 µM	0.898 ± 0.036
RD-ES, 0.00017 µM	0.944 ± 0.059
RD-ES, 0.00051 µM	0.967 ± 0.041
RD-ES, 0.00152 µM	0.954 ± 0.036
RD-ES, 0.00457 µM	0.965 ± 0.04
RD-ES, 0.01372 µM	0.97 ± 0.018
RD-ES, 0.04115 µM	0.978 ± 0.04
RD-ES, 0.1235 µM	0.973 ± 0.042
RD-ES, 0.3704 µM	0.987 ± 0.051
RD-ES, 1.111 µM	0.962 ± 0.032
RD-ES, 3.333 µM	0.844 ± 0.017
RD-ES, 10 µM	0.464 ± 0.013
SK-ES-1, 0.00017 µM	0.989 ± 0.028
SK-ES-1, 0.00051 µM	0.988 ± 0.021
SK-ES-1, 0.00152 µM	1 ± 0.035
SK-ES-1, 0.00457 µM	1.01 ± 0.017
SK-ES-1, 0.01372 µM	0.9857 ± 0.0053
SK-ES-1, 0.04115 µM	1 ± 0.035
SK-ES-1, 0.1235 µM	1.01 ± 0.019
SK-ES-1, 0.3704 µM	0.958 ± 0.053
SK-ES-1, 1.111 µM	0.864 ± 0.011
SK-ES-1, 3.333 µM	0.599 ± 0.043
SK-ES-1, 10 µM	0.168 ± 0.0081
SK-LMS-1, 0.00017 µM	1.07 ± 0.047
SK-LMS-1, 0.00051 µM	1.09 ± 0.034
SK-LMS-1, 0.00152 µM	1.05 ± 0.046
SK-LMS-1, 0.00457 µM	1.08 ± 0.048
SK-LMS-1, 0.01372 µM	1.07 ± 0.032
SK-LMS-1, 0.04115 µM	1.08 ± 0.07
SK-LMS-1, 0.1235 µM	1.06 ± 0.08
SK-LMS-1, 0.3704 µM	1.04 ± 0.05
SK-LMS-1, 1.111 µM	1.05 ± 0.029
SK-LMS-1, 3.333 µM	0.902 ± 0.049
SK-LMS-1, 10 µM	0.108 ± 0.011
SW684, 0.00017 µM	1.09 ± 0.093
SW684, 0.00051 µM	1.16 ± 0.015
SW684, 0.00152 µM	1.09 ± 0.037
SW684, 0.00457 µM	1.17 ± 0.096
SW684, 0.01372 µM	1.1 ± 0.03
SW684, 0.04115 µM	1.15 ± 0.077
SW684, 0.1235 µM	1.07 ± 0.099
SW684, 0.3704 µM	1.16 ± 0.013
SW684, 1.111 µM	1.1 ± 0.034
SW684, 3.333 µM	1.15 ± 0.033
SW684, 10 µM	0.424 ± 0.029
SW872, 0.00017 µM	1 ± 0.014
SW872, 0.00051 µM	1.02 ± 0.016
SW872, 0.00152 µM	1.05 ± 0.047
SW872, 0.00457 µM	1.026 ± 0.01
SW872, 0.01372 µM	1.03 ± 0.031
SW872, 0.04115 µM	1.02 ± 0.019
SW872, 0.1235 µM	1.03 ± 0.05
SW872, 0.3704 µM	1.04 ± 0.021
SW872, 1.111 µM	1.01 ± 0.05
SW872, 3.333 µM	0.868 ± 0.074
SW872, 10 µM	0.476 ± 0.027
SW982, 0.00017 µM	0.997 ± 0.017
SW982, 0.00051 µM	1.01 ± 0.011
SW982, 0.00152 µM	1.01 ± 0.02
SW982, 0.00457 µM	1 ± 0.016
SW982, 0.01372 µM	1 ± 0.022
SW982, 0.04115 µM	1.012 ± 0.0099
SW982, 0.1235 µM	0.998 ± 0.022
SW982, 0.3704 µM	0.989 ± 0.01
SW982, 1.111 µM	0.957 ± 0.03
SW982, 3.333 µM	0.675 ± 0.015
SW982, 10 µM	0.268 ± 0.018
VA-ES-BJ, 0.00017 µM	1.05 ± 0.028
VA-ES-BJ, 0.00051 µM	1.05 ± 0.038
VA-ES-BJ, 0.00152 µM	1.074 ± 0.0026
VA-ES-BJ, 0.00457 µM	1.04 ± 0.03
VA-ES-BJ, 0.01372 µM	1.04 ± 0.048
VA-ES-BJ, 0.04115 µM	1.05 ± 0.03
VA-ES-BJ, 0.1235 µM	1.05 ± 0.011
VA-ES-BJ, 0.3704 µM	1.06 ± 0.023
VA-ES-BJ, 1.111 µM	1.06 ± 0.033
VA-ES-BJ, 3.333 µM	1.04 ± 0.042
VA-ES-BJ, 10 µM	0.75 ± 0.0036
